Data as given in patent US20100099756A1, “USES OF INCENSOLE, INCENSOLE ACETATE AND DERIVATIVES THEREOF” (YISSUM RESEARCH DEVELOPMENT COMPANY OF THE HEBREW …, priority 2006, published 2010).

Biological target: T1, TRPV3 (Mus musculus, UniProt Q8K424)
T1 sequence (Q8K424 1-791): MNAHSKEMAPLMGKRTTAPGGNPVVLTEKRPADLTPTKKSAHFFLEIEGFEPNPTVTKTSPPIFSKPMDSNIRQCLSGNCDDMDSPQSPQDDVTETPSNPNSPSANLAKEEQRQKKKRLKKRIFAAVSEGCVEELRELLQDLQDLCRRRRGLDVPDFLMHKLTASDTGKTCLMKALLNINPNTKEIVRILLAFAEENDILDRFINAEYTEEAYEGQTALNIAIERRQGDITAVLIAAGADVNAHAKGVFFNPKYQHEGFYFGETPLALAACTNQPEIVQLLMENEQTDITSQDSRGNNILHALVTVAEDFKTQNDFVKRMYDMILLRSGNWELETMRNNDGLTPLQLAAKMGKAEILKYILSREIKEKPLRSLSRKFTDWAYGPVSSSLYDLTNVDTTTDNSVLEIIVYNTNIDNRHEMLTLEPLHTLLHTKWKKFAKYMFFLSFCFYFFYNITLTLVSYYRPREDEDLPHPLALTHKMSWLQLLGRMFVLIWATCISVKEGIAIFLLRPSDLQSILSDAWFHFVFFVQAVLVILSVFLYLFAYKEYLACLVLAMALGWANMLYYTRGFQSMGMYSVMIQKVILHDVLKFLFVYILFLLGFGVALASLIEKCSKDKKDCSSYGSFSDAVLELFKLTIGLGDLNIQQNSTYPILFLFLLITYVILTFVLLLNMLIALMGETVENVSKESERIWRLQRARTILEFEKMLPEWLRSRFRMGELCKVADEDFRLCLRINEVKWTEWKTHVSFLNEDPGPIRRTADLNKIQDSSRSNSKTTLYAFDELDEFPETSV
Experiment: Elevated plus maze in WT and TRPV3−/− mice
Assay type: in vivo, C57BL/6 mice
Design: from tissue; host or cells: whole animal, wild type C57BL/6 female mice (TRPV3 KO as control)
Conditions: 75 mg/kg
Procedure: Wild type and TRPV3^−/− mice (18-20 weeks old) were injected with vehicle (isopropanol:emulphor:saline=1:1:18) or IA (75 mg/kg). 30 min later they were tested in a, the elevated plus maze (5 min), followed by b, 9 min exposure to the Porsolt forced-swimming test. […] Data are presented as means±SEM; n=4-5. * p<0.05, compared to WT-Vehicle-injected mice (Bonferroni post hoc test). ** p<0.01, compared to WT-Vehicle-injected mice (Bonferroni post hoc test).
Mice were placed in the central platform (10×10 cm) between the open (10×45 cm) and enclosed (10×45×40 cm) arms of a plus maze. The number of entries and the time spent in each of the arms was recorded. As described by others (Crawley, 2000; Treit and Menard, 1998), an ‘anti-anxiety’ effect was calculated both as the ratio of entries onto the open arms to total arm entries, and as the % time on the open arms proportional to the time in the closed arms. Mice (female Sabra strain, aged 3.5-4.5 months old) were injected intraperitoneally with 10, 30 or 50 mg/kg of incensole acetate or with vehicle. Each dose was administered to 5 mice. Fifty min after injection the mice were tested in the plus-maze for […] effects. Desipramine (5 mg/kg) was injected to a separate group of mice as a positive control. One-way Anova indicated significant effects (F=8.9, df=4.27, P<0.01). […] Data are presented as means±SEM. DMI=desipramine […]

CC(=O)OC1CC/C(C)=C/CC/C(C)=C/CC2(C(C)C)CCC1(C)O2 (centres unmarked) [IA, incensole acetate]
time on the open arms, TRPV3−/− mice (TRPV3−/− mice, IA vs vehicle): spent identical time on the open arms | time on the open arms, WT mice (WT mice, 30 min after injection): potent anxiolytic-like effect
